According to PubChem BioAssay (NCI):
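Following 48 hours of exposure in 96-well plates, responses at five concentrations were used to interpolate endpoints linearly. GI50 marks 50% less growth. TGI: total growth inhibition.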

What was measured:
Experiment in all cases: NCI tumour cell line growth inhibition, 48 h
OVCAR-5 ovarian = test system: OVCAR-5 ovarian
UACC-62 melanoma = test system: UACC-62 melanoma
HS 578T breast = test system: HS 578T breast
SNB-75 CNS = test system: SNB-75 CNS
COLO 205 colon = test system: COLO 205 colon
U251 CNS = test system: U251 CNS
NCI/ADR-RES ovarian = test system: NCI/ADR-RES ovarian
NCI-H226 lung = test system: NCI-H226 lung
LOX IMVI melanoma = test system: LOX IMVI melanoma
HCC-2998 colon = test system: HCC-2998 colon
786-0 renal = test system: 786-0 renal
HCT-116 colon = test system: HCT-116 colon
MALME-3M melanoma = test system: MALME-3M melanoma
OVCAR-8 ovarian = test system: OVCAR-8 ovarian
UACC-257 melanoma = test system: UACC-257 melanoma
HCT-15 colon = test system: HCT-15 colon
HOP-92 NSCLC = test system: HOP-92 NSCLC
HOP-62 NSCLC = test system: HOP-62 NSCLC
NCI-H23 lung = test system: NCI-H23 lung
SK-MEL-28 melanoma = test system: SK-MEL-28 melanoma
HL-60(TB) leukemia = test system: HL-60(TB) leukemia
MDA-MB-231 breast = test system: MDA-MB-231 breast
CAKI-1 renal = test system: CAKI-1 renal
MCF7 breast = test system: MCF7 breast
UO-31 renal = test system: UO-31 renal
EKVX NSCLC = test system: EKVX NSCLC
ACHN renal = test system: ACHN renal
SF-295 CNS = test system: SF-295 CNS
RPMI-8226 leukemia = test system: RPMI-8226 leukemia
PC-3 prostate = test system: PC-3 prostate
A549 NSCLC = test system: A549 NSCLC
BT-549 breast = test system: BT-549 breast
SK-MEL-2 melanoma = test system: SK-MEL-2 melanoma
TK-10 renal = test system: TK-10 renal
SN12C renal = test system: SN12C renal
CCRF-CEM leukemia = test system: CCRF-CEM leukemia
A498 renal = test system: A498 renal
SR leukemia = test system: SR leukemia
SF-539 CNS = test system: SF-539 CNS
MDA-MB-435 = test system: MDA-MB-435
HT29 colon = test system: HT29 colon
SK-OV-3 ovarian = test system: SK-OV-3 ovarian
DU-145 prostate = test system: DU-145 prostate
SNB-19 CNS = test system: SNB-19 CNS
T-47D breast = test system: T-47D breast
SF-268 CNS = test system: SF-268 CNS
SK-MEL-5 melanoma = test system: SK-MEL-5 melanoma
NCI-H522 lung = test system: NCI-H522 lung
NCI-H460 lung = test system: NCI-H460 lung
SW-620 colon = test system: SW-620 colon
MOLT-4 leukemia = test system: MOLT-4 leukemia
IGROV1 ovarian = test system: IGROV1 ovarian
KM12 colon = test system: KM12 colon
M14 melanoma = test system: M14 melanoma
RXF 393 renal = test system: RXF 393 renal
OVCAR-4 ovarian = test system: OVCAR-4 ovarian

## CCCCCc1ccc(S(=O)(=O)Nc2cc(-c3csc(NC(=O)CN4CCN(C)CC4)n3)ccc2OC)cc1
OVCAR-5 ovarian
  GI50: 1540 nM
  TGI: 5350 nM
UACC-62 melanoma
  GI50: 969 nM
  TGI: 1980 nM
HS 578T breast
  GI50: 919 nM
  TGI: 2190 nM
SNB-75 CNS
  GI50: 1070 nM
  TGI: 4470 nM
COLO 205 colon
  GI50: 821 nM
  TGI: 1680 nM
U251 CNS
  GI50: 901 nM
  TGI: 1910 nM
NCI/ADR-RES ovarian
  GI50: 2370 nM
  TGI: 9890 nM
NCI-H226 lung
  GI50: 6890 nM
  TGI: 17600 nM
LOX IMVI melanoma
  GI50: 866 nM
  TGI: 1630 nM
HCC-2998 colon
  GI50: 986 nM
  TGI: 1970 nM
786-0 renal
  GI50: 884 nM
  TGI: 1640 nM
HCT-116 colon
  GI50: 876 nM
  TGI: 1650 nM
MALME-3M melanoma
  GI50: 788 nM
  TGI: 1520 nM
OVCAR-8 ovarian
  GI50: 1280 nM
  TGI: 3650 nM
UACC-257 melanoma
  GI50: 850 nM
  TGI: 1640 nM
HCT-15 colon
  GI50: 976 nM
  TGI: 2090 nM
HOP-92 NSCLC
  GI50: 857 nM
  TGI: 1960 nM
HOP-62 NSCLC
  GI50: 915 nM
  TGI: 1860 nM
NCI-H23 lung
  GI50: 1840 nM
  TGI: 7120 nM
SK-MEL-28 melanoma
  GI50: 873 nM
  TGI: 1620 nM
HL-60(TB) leukemia
  GI50: 1070 nM
  TGI: 2340 nM
MDA-MB-231 breast
  GI50: 992 nM
  TGI: 2340 nM
CAKI-1 renal
  GI50: 869 nM
  TGI: 1970 nM
MCF7 breast
  GI50: 937 nM
  TGI: 1950 nM
UO-31 renal
  GI50: 736 nM
  TGI: 1610 nM
EKVX NSCLC
  GI50: 1920 nM
  TGI: 9160 nM
ACHN renal
  GI50: 957 nM
  TGI: 1980 nM
SF-295 CNS
  GI50: 993 nM
  TGI: 2010 nM
RPMI-8226 leukemia
  GI50: 925 nM
  TGI: 2160 nM
PC-3 prostate
  GI50: 1800 nM
  TGI: 7420 nM
A549 NSCLC
  GI50: 1430 nM
  TGI: 5480 nM
BT-549 breast
  GI50: 2520 nM
  TGI: 11200 nM
SK-MEL-2 melanoma
  GI50: 867 nM
  TGI: 1650 nM
TK-10 renal
  GI50: 1410 nM
  TGI: 5100 nM
SN12C renal
  GI50: 1140 nM
  TGI: 2770 nM
CCRF-CEM leukemia
  GI50: 1240 nM
  TGI: 3920 nM
A498 renal
  GI50: 5410 nM
  TGI: 12200 nM
SR leukemia
  GI50: 993 nM
  TGI: 2620 nM
SF-539 CNS
  GI50: 859 nM
  TGI: 1610 nM
MDA-MB-435
  GI50: 878 nM
  TGI: 1640 nM
HT29 colon
  GI50: 871 nM
  TGI: 1680 nM
SK-OV-3 ovarian
  GI50: 5140 nM
  TGI: 13000 nM
DU-145 prostate
  GI50: 1620 nM
  TGI: 4960 nM
SNB-19 CNS
  GI50: 1260 nM
  TGI: 3740 nM
T-47D breast
  GI50: 921 nM
  TGI: 2060 nM
SF-268 CNS
  GI50: 898 nM
  TGI: 1920 nM
SK-MEL-5 melanoma
  GI50: 892 nM
  TGI: 1610 nM
NCI-H522 lung
  GI50: 889 nM
  TGI: 1700 nM
NCI-H460 lung
  GI50: 924 nM
  TGI: 1770 nM
SW-620 colon
  GI50: 867 nM
  TGI: 1690 nM
MOLT-4 leukemia
  GI50: 1490 nM
  TGI: 4540 nM
IGROV1 ovarian
  GI50: 1190 nM
  TGI: 3510 nM
KM12 colon
  GI50: 1210 nM
  TGI: 2920 nM
M14 melanoma
  GI50: 887 nM
  TGI: 1700 nM
RXF 393 renal
  GI50: 717 nM
  TGI: 1500 nM
OVCAR-4 ovarian
  GI50: 1310 nM
  TGI: 4100 nM
